Laboratory results: patent EP2628732A1, “Novel crystalline form of rilpivirine hydrochloride” (Sandoz AG, priority 2012, dated 2013)

Assays:
[1] = Solubility determination in 0.01 N aqueous HCl (gravimetric, suspensions stirred, sampled after 30 min); assay type: physicochemical; conditions: 0.01 N aqueous HCl at 25 ± 0.1 °C, samples taken after 30 min, monohydrochloride
Protocol: The solubility data of form E of the present invention and forms A and C of EP1632232 B1 in 0.01 N aqueous HCl at 25 ± 0.1 °C are presented in table 1. Table 1: Solubility data in 0.01 N aqueous HCl at 25 ± 0.1 °C Suspensions of forms A, C and E in 0.01 N aqueous HCl were stirred in closed vessels with a diameter of 25 mm in a thermostatic water bath at 25 ± 0.1 °C. Before the solute was added the solvent was equilibrated to the temperature. Three samples of each modification were taken with […] filter holders attached to volumetric pipettes (2 mL) via a small glass tube after 30 min. They were sucked through Millipore membrane filters (0.45 μm) and 2 mL of the clear solution were poured in vessels which had been dried and tared before. The hydrochloric acid was evaporated in a drying chamber at 60 °C for approximately 15 h before the temperature was further increased to 80 °C for approximately 3 h. To remove residue water, the vessels were subsequently dried at 110 °C and 60 mbar for approximately 3 h. Afterwards the vials with the residue were cooled to room temperature in an exsiccator and weighed on an analysis balance (Mettler AT250). The difference in weight to the tare weight was then measured to determine the solubilities.

[2] = Water content at defined relative humidity; assay type: physicochemical

With `Cc1cc(C=CC#N)cc(C)c1Nc1ccnc(Nc2ccc(C#N)cc2)n1.Cl` [Form A, 4-[[4-[[4-(2-Cyanoethenyl)-2,6-dimethylphenyl]amino]-2-pyrimidinyl]amino]benzonitrile monohydrochloride] the Solubility ([1]; listed as A) was 80 µg/mL.
With `Cc1cc(C=CC#N)cc(C)c1Nc1ccnc(Nc2ccc(C#N)cc2)n1.Cl` [Form C, 4-[[4-[[4-(2-Cyanoethenyl)-2,6-dimethylphenyl]amino]-2-pyrimidinyl]amino]benzonitrile monohydrochloride] the Solubility ([1]; listed as C) was 100 µg/mL.
In the case of `Cc1cc(C=CC#N)cc(C)c1Nc1ccnc(Nc2ccc(C#N)cc2)n1.Cl` [Form E, 4-[[4-[[4-(2-Cyanoethenyl)-2,6-dimethylphenyl]amino]-2-pyrimidinyl]amino]benzonitrile monohydrochloride], the water ([2]; at a relative humidity of about 0 %) was “about 0%”, the water ([2]; at a relative humidity of about 90 %) was “about 0.8%” and the Solubility ([1]; listed as E) was 270 µg/mL.
